Experiments:
Assay in all cases: differential drug sensitivity score (dDSS) relative to sarcoma reference cohort mean DSS (DSS units (0-100 scale difference)); higher = more selective sensitivity than reference sarcomas
Conditions in all cases: exposure time: 72 h; concentration range: 10-10000 nM
CDS-ZH001-2 = tested on: CDS-ZH001-2 (patient-derived CIC-DUX4 sarcoma tumoroid)
Description: (§1)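 Drug response profiling of patient-derived Ewing sarcoma and CIC::DUX4 sarcoma tumoroid models (or cells tested directly after isolation from the tumor, 'direct'). The DSS is the normalised AUC (0-100); dDSS is the sample DSS minus the mean DSS of a 34-sarcoma reference cohort profiled in the same lab.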

CDS-ZH001 = tested on: CDS-ZH001 (patient-derived CIC-DUX4 sarcoma tumoroid)
Description: as §1

CDS-ZH002 direct = tested on: CDS-ZH002 direct (CIC-DUX4 sarcoma cells right after isolation)
Description: as §1

CDS-ZH002 = tested on: CDS-ZH002 (patient-derived CIC-DUX4 sarcoma tumoroid)
Description: as §1

CDS-ZH003 = tested on: CDS-ZH003 (patient-derived CIC-DUX4 sarcoma tumoroid)
Description: as §1

ES-ZH001 = tested on: ES-ZH001 (patient-derived Ewing sarcoma tumoroid)
Description: as §1

ES-ZH002 = tested on: ES-ZH002 (patient-derived Ewing sarcoma tumoroid)
Description: as §1

ES-ZH004 = tested on: ES-ZH004 (patient-derived Ewing sarcoma tumoroid)
Description: as §1

ES-ZH007 = tested on: ES-ZH007 (patient-derived Ewing sarcoma tumoroid)
Description: as §1

ES-ZH008 = tested on: ES-ZH008 (patient-derived Ewing sarcoma tumoroid)
Description: as §1

ES-ZH009 = tested on: ES-ZH009 (patient-derived Ewing sarcoma tumoroid)
Description: as §1

ES-ZH016 direct = tested on: ES-ZH016 direct (Ewing sarcoma cells right after isolation)
Description: as §1

ES-ZH016 = tested on: ES-ZH016 (patient-derived Ewing sarcoma tumoroid)
Description: as §1

SMILES | differential drug sensitivity score (CDS-ZH001-2) | differential drug sensitivity score (CDS-ZH001) | differential drug sensitivity score (CDS-ZH002 direct) | differential drug sensitivity score (CDS-ZH002) | differential drug sensitivity score (CDS-ZH003) | differential drug sensitivity score (ES-ZH001) | differential drug sensitivity score (ES-ZH002) | differential drug sensitivity score (ES-ZH004) | differential drug sensitivity score (ES-ZH007) | differential drug sensitivity score (ES-ZH008) | differential drug sensitivity score (ES-ZH009) | differential drug sensitivity score (ES-ZH016 direct) | differential drug sensitivity score (ES-ZH016)
CCn1c(-c2nonc2N)nc2cnc(Oc3cccc(NC(=O)c4ccc(OCCN5CCOCC5)cc4)c3)cc21 | 1.1 | -2.7 | -2.4 | -2.9 | -1.3 | 1.8 | 4.5 | -2.6 | -2.1 | -2.1 | 6.5 | -1.7 | 2
CN(c1ncccc1CNc1nc(Nc2ccc3c(c2)CC(=O)N3)ncc1C(F)(F)F)S(C)(=O)=O | 1.5 | 5.1 | 3.8 | -0.6 | -0.7 | 5 | 6 | -0.4 | -0.4 | -0.7 | 0.8 | -1.2 | 2.2
CC(C)C[C@H](NC(=O)[C@H](Cc1ccccc1)NC(=O)c1cnccn1)B(O)O [Bortezomib] | 6 | 6.9 | 6.9 | 3.6 | 6 | 3.9 | 4.7 | 5.5 | 6.4 | -0.2 | 7 | -2.6 | -5.9
Nc1ccn([C@@H]2O[C@H](CO)[C@@H](O)[C@@H]2O)c(=O)n1 [Cytarabine] | 3.3 | -12.4 | -8.5 | 1.3 | 0.8 | 8.3 | 21.1 | 4.4 | 17 | 22.9 | -6.1 | 11.6 | 12.5
CS(=O)(=O)c1ccc(C(=O)Nc2ccc(Cl)c(-c3ccccn3)c2)c(Cl)c1 [Vismodegib] | -2.6 | -2.7 | 1.1 | -2.4 | -6.9 | 4.7 | 7.1 | 5.2 | 0.4 | 2.8 | -2.6 | -2.7 | 1.4
CCn1c(-c2nonc2N)nc2c(C#CC(C)(C)O)ncc(OC[C@H]3CCCNC3)c21 | -9.5 | 5.1 | -3.1 | -9.5 | -9.5 | 0.5 | 13 | 10.8 | 4.4 | 15.5 | 5.5 | -1 | 1.1
Oc1ccc(/C=C/c2cc(O)cc(O)c2)cc1 [Resveratrol] | 0 | 1.4 | 0.1 | -2 | -4.6 | 11.6 | 16.5 | 10.1 | 0.9 | 13.8 | 7 | 4.7 | 4.4
CNCc1ccc(-c2[nH]c3cc(F)cc4c3c2CCNC4=O)cc1 [Rucaparib] | 7.1 | -4 | -0.8 | -4 | -4.1 | 6.7 | 17.9 | 5.6 | 4.3 | 11.5 | 1.4 | 21 | 4.9
CCc1cncnc1N1CCN(Cc2nc3ccc(C(F)(F)F)cc3[nH]2)CC1 | -3.6 | -3.7 | -2.4 | -1 | -0.6 | -0.7 | -3.9 | -2.8 | -1.7 | -3.8 | 3.3 | -4.2 | -3.1
NC(=O)C1CCCc2c1[nH]c1ccc(Cl)cc21 (stereo not drawn) [Selisistat] | -1.3 | -0.5 | -1.4 | -0.9 | -2 | -1.4 | -1 | -1.3 | -1.4 | 8.9 | -0.7 | -1.3 | -0.9
Cc1c(-c2ccc(N3CCc4cccc(C(=O)Nc5nc6ccccc6s5)c4C3)nc2C(=O)O)cnn1CC12CC3CC(CC(C3)C1)C2 | – | – | 2.8 | – | – | – | – | – | – | – | 10.9 | 7.8 | -9.5
CCn1cc(C(=O)O)c(=O)c2c(N)c(F)c(NC3CCCCC3)cc21 | -0.9 | -0.9 | – | -0.9 | -0.9 | -0.9 | -0.9 | -0.9 | -0.3 | -0.9 | 3.3 | 7.2 | -0.9
O=C(O)C1(C(=O)O)CCC1.[NH2-].[NH2-].[Pt+2] [Carboplatin] | -1.6 | – | -1.2 | -1.6 | -1.6 | -0.3 | 2.2 | 0.8 | -0.9 | 2.5 | -1.6 | 8.6 | 1.7
CCN(CC)CCCC(C)Nc1ccnc2cc(Cl)ccc12 (stereo not drawn) [Chloroquine] | 4.7 | 0.3 | – | 5.3 | -3.8 | -3.8 | -0.6 | 3 | 2.8 | 1.4 | -2 | – | –
CC(C)(C)Cn1c(N)nc2ccc(-c3[nH]c(C(C)(C)C)nc3-c3ccc(F)cc3)nc21 [Ralimetinib] | 6.3 | -2.9 | – | 4.9 | 13.4 | -5.3 | 0 | -2.2 | -4.3 | -4.4 | -3.2 | – | –
COc1ccc(-c2nc(N3CCOCC3)c3sc(CN(C)c4ncc(C(=O)NO)cn4)cc3n2)cn1 [Fimepinostat] | 5.7 | 1.5 | – | -3.2 | -0.5 | 5.9 | 6 | 8.6 | 10.6 | 9.2 | 6.1 | 8.8 | 0.5
N.N.[Cl][Pt][Cl] [Cisplatin] | – | – | -2.4 | -0.5 | – | -1.1 | 7.1 | 5.8 | 3.9 | 2.9 | -1.4 | – | –
